Where “and” joins values, the source holds several entries; their conditions need not be identical. Identical values can stand only once. Inconclusive results and toxic doses are left out. How the source made its calls: active means survival T/C of 150% or more; inactive means T/C below 125% in these data.
System: nude mice, LOX melanoma ip, survival T/C
Test: NCI In Vivo Anticancer Drug Screen. Data for tumor model Human Amelanotic Melanoma (LOX) (intraperitoneal) in NU/NU BALB/C (nude) mice
Details: endpoint: median survival time, higher = longer survival
Method: The antitumor activity of compounds was measured in mice bearing transplantable tumors. Survival or tumor size were measured and the results are expressed as the measurement made in the treated group (T) divided by the measurement made in the vehicle treated control group (C). The tumor model used in this assay is Human Amelanotic Melanoma (LOX) (intraperitoneal) in NU/NU BALB/C (nude) mice

[1] = dose: 25.0 mg/kg/injection, schedule: Q04DX003 (ip), vehicle: saline with Tween-80
[2] = dose: 50.0 mg/kg/injection, schedule: Q04DX003 (ip), vehicle: saline with Tween-80
[3] = dose: 75.0 mg/kg/injection, schedule: Q04DX003 (ip), vehicle: saline with Tween-80
[4] = dose: 150.0 mg/kg/injection, schedule: Q04DX003 (ip), vehicle: saline with Tween-80
[5] = dose: 300.0 mg/kg/injection, schedule: Q04DX003 (ip), vehicle: saline with Tween-80

Measured: T/C

[NH-]C(CCC(N)=O)C(=O)O.[NH-]C(CCC(N)=O)C(=O)O.[Zn+2] (centres undefined)
inactive: dose: 12.5 mg/kg/injection, schedule: Q04DX003 (ip), vehicle: saline with Tween-80 94 % of control | [1] 94 % of control | [2] 118 % of control

COc1cc(NS(C)(=O)=O)ccc1Nc1c2ccccc2nc2ccccc12
inactive: dose: 2.5 mg/kg/injection, schedule: Q04DX003 (ip), vehicle: other 117 % of control | dose: 5.0 mg/kg/injection, schedule: Q04DX003 (ip), vehicle: other 122 % of control

CC1=C[P+](c2ccccc2)(c2ccccc2)C=C(c2ccccc2)O1
inactive: dose: 0.38 mg/kg/injection, schedule: Q04DX003 (ip), vehicle: saline 97 % of control | dose: 3.0 mg/kg/injection, schedule: Q04DX003 (ip), vehicle: saline 88 % of control

CO[C@H](/C(C)=C/C=C/C(C)=C/c1coc(C)n1)[C@H](C)[C@H]1C[C@@H](O)[C@@]2(C)O[C@H]2/C=C/[C@@H](C)[C@@H]2C[C@@H](CC(=O)O2)C[C@H]2O[C@@H]2C(=O)O1
active: dose: 0.09 mg/kg/injection, schedule: Q01DX009 (ip), vehicle: other 176 % of control | dose: 0.13 mg/kg/injection, schedule: Q01DX009 (ip), vehicle: other 180 % of control | dose: 0.2 mg/kg/injection, schedule: Q01DX009 (ip), vehicle: other 175 % of control | dose: 0.3 mg/kg/injection, schedule: Q01DX009 (ip), vehicle: other 152 % of control and 196 % of control | dose: 0.44 mg/kg/injection, schedule: Q01DX009 (ip), vehicle: other 162 % of control
inactive: dose: 0.12 mg/kg/injection, schedule: Q04DX003 (ip), vehicle: other 121 % of control | dose: 0.2 mg/kg/injection, schedule: Q04DX003 (ip), vehicle: other 108 % of control | dose: 0.55 mg/kg/injection, schedule: Q04DX003 (ip), vehicle: other 122 % of control | dose: 0.66 mg/kg/injection, schedule: Q01DX009 (ip), vehicle: other 93 % of control

O=C1C(=O)c2cccnc2-c2ncccc21
inactive: dose: 2.5 mg/kg/injection, schedule: Q04DX003 (ip), vehicle: Klucel (hydroxypropylcellulose) (HPC) 94 % of control | dose: 5.0 mg/kg/injection, schedule: Q04DX003 (ip), vehicle: Klucel (hydroxypropylcellulose) (HPC) 101 % of control

O=C(O)c1cc(C(=O)O)c(C(=O)O)cc1C(=O)O.[NH2-].[NH2-].[NH2-].[NH2-].[Pt+2].[Pt+2]
inactive: dose: 6.25 mg/kg/injection, schedule: Q04DX003 (ip), vehicle: water 89 % of control | dose: 12.5 mg/kg/injection, schedule: Q04DX003 (ip), vehicle: water 104 % of control | dose: 25.0 mg/kg/injection, schedule: Q04DX003 (ip), vehicle: water 115 % of control | dose: 50.0 mg/kg/injection, schedule: Q04DX003 (ip), vehicle: water 115 % of control

COC(=O)NC1C(C)OC(OC2C/C=C(/C)C3C=CC4C(OC5CC(OC6CC(OC7CC(O)C(O)C(C)O7)C(OC7CC(O)C(OC)C(C)O7)C(C)O6)C(O)C(C)O5)C(C)CC(C)C4C3(C)/C(O)=C3\C(=O)OC4(CC(C)C(CO)=CC4/C=C\2C)C3=O)CC1(C)[N+](=O)[O-] (centres undefined)
inactive: dose: 75.0 mg/kg/injection, schedule: Q04DX003 (ip), vehicle: water 93 % of control | dose: 150.0 mg/kg/injection, schedule: Q04DX003 (ip), vehicle: water 120 % of control

CN(C)C(=O)SC1=C(c2c(Cl)cccc2Cl)C(=O)c2ccccc21
inactive: dose: 75.0 mg/kg/injection, schedule: Q04DX003 (ip), vehicle: Klucel (hydroxypropylcellulose) (HPC) 103 % of control and 110 % of control | dose: 150.0 mg/kg/injection, schedule: Q04DX003 (ip), vehicle: Klucel (hydroxypropylcellulose) (HPC) 112 % of control and 97 % of control | dose: 300.0 mg/kg/injection, schedule: Q04DX003 (ip), vehicle: Klucel (hydroxypropylcellulose) (HPC) 109 % of control and 92 % of control | dose: 600.0 mg/kg/injection, schedule: Q04DX003 (ip), vehicle: Klucel (hydroxypropylcellulose) (HPC) 110 % of control and 123 % of control | dose: 1200.0 mg/kg/injection, schedule: Q04DX003 (ip), vehicle: Klucel (hydroxypropylcellulose) (HPC) 105 % of control

O=C(O)Cc1cccc(=O)c(O)c1C(=O)O
inactive: [3] 97 % of control | [4] 94 % of control

[CH3][Sn]([CH3])([Cl])[c]1cc[c]([Sn]([CH3])([CH3])[Cl])cc1
inactive: dose: 0.63 mg/kg/injection, schedule: Q04DX003 (ip), vehicle: saline 91 % of control | dose: 1.25 mg/kg/injection, schedule: Q04DX003 (ip), vehicle: saline 103 % of control | dose: 2.5 mg/kg/injection, schedule: Q04DX003 (ip), vehicle: saline 98 % of control | dose: 5.0 mg/kg/injection, schedule: Q04DX003 (ip), vehicle: saline 107 % of control

O=C(CCCCCCC(=O)ON1C(=O)CCC1=O)ON1C(=O)CCC1=O
inactive: [3] 117 % of control | [4] 101 % of control | [5] 98 % of control

CN(C)N=Nc1ccc(C(N)=O)cc1
active: dose: 180.0 mg/kg/injection, schedule: Q04DX003 (ip), vehicle: saline with Tween-80 153 % of control | dose: 360.0 mg/kg/injection, schedule: Q04DX003 (ip), vehicle: saline with Tween-80 210 % of control
inactive: dose: 22.5 mg/kg/injection, schedule: Q04DX003 (ip), vehicle: saline with Tween-80 99 % of control | dose: 45.0 mg/kg/injection, schedule: Q04DX003 (ip), vehicle: saline with Tween-80 120 % of control

Cc1ccoc1
inactive: [1] 94 % of control | [2] 95 % of control | dose: 100.0 mg/kg/injection, schedule: Q04DX003 (ip), vehicle: saline with Tween-80 102 % of control | dose: 200.0 mg/kg/injection, schedule: Q04DX003 (ip), vehicle: saline with Tween-80 95 % of control | dose: 400.0 mg/kg/injection, schedule: Q04DX003 (ip), vehicle: saline with Tween-80 96 % of control

CC(C)NC(=O)OCc1c(COC(=O)NC(C)C)c(-c2ccc(Cl)c(Cl)c2)n2c1CCC2
active: [3] 238 % of control | dose: 75.0 mg/kg/injection, schedule: Q04DX003 (ip), vehicle: saline 152 % of control | [4] 324 % of control | dose: 150.0 mg/kg/injection, schedule: Q04DX003 (ip), vehicle: saline 210 % of control | [5] 313 % of control | dose: 300.0 mg/kg/injection, schedule: Q04DX003 (ip), vehicle: saline 178 % of control | dose: 600.0 mg/kg/injection, schedule: Q04DX003 (ip), vehicle: saline 344 % of control | dose: 1200.0 mg/kg/injection, schedule: Q04DX003 (ip), vehicle: saline 344 % of control

CC(=O)O[C@H]1C(=O)[C@@]2(C)[C@H]([C@H](OC(=O)c3ccccc3)[C@]3(O)C[C@H](OC(=O)[C@H](O)[C@@H](NC(=O)c4ccccc4)c4ccccc4)C(C)=C1C3(C)C)[C@]1(OC(C)=O)CO[C@@H]1C[C@@H]2O
active: dose: 1.88 mg/kg/injection, schedule: Q01DX009 (ip), vehicle: Klucel (hydroxypropylcellulose) (HPC) 172 % of control | dose: 3.75 mg/kg/injection, schedule: Q01DX009 (ip), vehicle: Klucel (hydroxypropylcellulose) (HPC) 158 % of control and 173 % of control | dose: 7.5 mg/kg/injection, schedule: Q01DX009 (ip), vehicle: Klucel (hydroxypropylcellulose) (HPC) 170 % of control
inactive: dose: 15.0 mg/kg/injection, schedule: Q01DX009 (ip), vehicle: Klucel (hydroxypropylcellulose) (HPC) 105 % of control and 93 % of control

Nc1nc2n[nH]nc2c(=O)[nH]1
active: dose: 37.5 mg/kg/injection, schedule: Q04DX003 (ip), vehicle: suspension in saline 164 % of control | dose: 75.0 mg/kg/injection, schedule: Q04DX003 (ip), vehicle: suspension in saline 177 % of control | dose: 150.0 mg/kg/injection, schedule: Q04DX003 (ip), vehicle: suspension in saline 217 % of control | dose: 300.0 mg/kg/injection, schedule: Q04DX003 (ip), vehicle: suspension in saline 251 % of control

COc1cc2c(c(OC)c1OC)-c1ccc(OC)c(=O)cc1[C@@H](N)CC2
active: dose: 120.0 mg/kg/injection, schedule: Q04DX003 (ip), vehicle: Klucel (hydroxypropylcellulose) (HPC) 163 % of control
inactive: dose: 3.75 mg/kg/injection, schedule: Q04DX003 (ip), vehicle: Klucel (hydroxypropylcellulose) (HPC) 102 % of control | dose: 7.5 mg/kg/injection, schedule: Q04DX003 (ip), vehicle: Klucel (hydroxypropylcellulose) (HPC) 104 % of control | dose: 15.0 mg/kg/injection, schedule: Q04DX003 (ip), vehicle: Klucel (hydroxypropylcellulose) (HPC) 108 % of control and 113 % of control and 116 % of control | dose: 30.0 mg/kg/injection, schedule: Q04DX003 (ip), vehicle: Klucel (hydroxypropylcellulose) (HPC) 113 % of control and 114 % of control and 115 % of control | dose: 60.0 mg/kg/injection, schedule: Q04DX003 (ip), vehicle: Klucel (hydroxypropylcellulose) (HPC) 114 % of control

— PubChem BioAssay AID280 (DTP/NCI, 2004)
